Measurements published in patent US7205162B1, “Artificial antibodies, method of producing the same and use thereof” (priority 1995, dated 2007).

Legend:
[1] = tested on: natural antibodies (Ab's) against theophylline; conditions: data from ref 22; cited from earlier work
[2] = Molecularly Imprinted Sorbent Assay (MIA), competitive binding of 3H-theophylline to anti-theophylline polymer; conditions: for Cross-reaction (%) ArtAb, Theophylline antibodies: molar ratio of theophylline to ligand giving 50% inhibition of 3H-theophylline binding to polymer, ligands added to drug free serum
[3] = Scatchard plot analysis with radio-labelled ligand, anti-theophylline polymer; assay type: binding; conditions: LIGAND programme
From the text: (§1) The equilibrium dissociation constants (KD) for binding of the drugs to the corresponding polymers were estimated by Scatchard plot analysis using radio-labelled ligands.

[4] = Molecularly Imprinted Sorbent Assay (MIA), competitive binding of 3H-diazepam to anti-diazepam polymer; conditions: molar ratio of diazepam to ligand giving 50% inhibition of 3H-diazepam binding to polymer; ligands added to drug free serum
[5] = tested on: natural antibodies (Ab's) against diazepam; conditions: data from ref 24; cited from earlier work
[6] = Scatchard plot analysis with radio-labelled ligand, anti-diazepam polymer
From the text: as §1

| Structure (SMILES) | Cross-reaction (%) Ab*, Theophylline antibodies [1] | Cross-reaction (%) ArtAb, Theophylline antibodies [2] | Cross-reaction (%) ArtAb, Diazepam antibodies [4] | Cross-reaction (%) Ab**, Diazepam antibodies [5] | further results |
| --- | --- | --- | --- | --- | --- |
| Cn1c(=O)c2[nH]c(=O)[nH]c2n(C)c1=O [1,3-Dimethyluric acid] | <1% | <1% |  |  |  |
| O=c1[nH]cnc2nc[nH]c12 [Hypoxanthine] | <1% | <1% |  |  |  |
| Cn1c(=O)c2[nH]cnc2n(C)c1=O [Theophylline, 1,3-dimethylxanthine] | 100% | 100% |  |  | Kd ([3]; read-out: KD, high affinity binding sites): 0.346 µM; Kd ([3]; read-out: KD, low affinity binding sites): 65.5 µM |
| Cn1cnc2c1c(=O)[nH]c(=O)n2C [Theobromine, 3,7-dimetylxanthine] | <1% |  |  |  |  |
| Cn1c(=O)c2[nH]cnc2n(C)c1=O [[^3H]-theophylline] |  |  |  |  | time to binding equilibrium ([2]; 12.5 mg polymer, acetonitrile-acetic acid (99/1), room temperature): 8 h; share of the binding occurred within 3 h ([2]; within 3 h, acetonitrile-acetic acid (99/1), room temperature): 80%; share of the binding occurred within 5 h ([2]; within 5 h, acetonitrile-acetic acid (99/1), room temperature): 90% |
| O=c1[nH]c(=O)c2[nH]c(=O)[nH]c2[nH]1 [Uric acid] | <1% | <1% |  |  |  |
| Cn1c(=O)[nH]c(=O)c2[nH]cnc21 [3-Methylxantin, 3-methylxanthine] | 2% | 7% |  |  | cross-reactivity in MIA for theophylline (in words) [2]: some cross-reactivity |
| CNC1=Nc2ccc(Cl)cc2C(c2ccccc2)=[N+]([O-])C1 [Chlordiazepoxid] |  |  | 2% | <1% |  |
| Cn1c(=O)c2c(ncn2CCO)n(C)c1=O [7-(β-Hydroxyethyl)-1,3-di-methylxanthine] | <1% | <1% |  |  |  |
| O=C1Nc2ccc(Cl)cc2C(c2ccccc2Cl)=NC1O (stereo not shown) [Lorazepam] |  |  | 4% | 1% |  |
| CN1C(=O)CN=C(c2ccccc2)c2cc(Cl)ccc21 [Diazepam] |  |  | 100% | 100% | Kd ([6]; read-out: KD, high affinity binding sites, LIGAND programme): 0.0376 µM; Kd ([6]; read-out: KD, low affinity binding sites, LIGAND programme): 0.0736 µM |
| Cn1c(=O)[nH]c2[nH]c(=O)[nH]c2c1=O [1-Methyluric acid] | <1% | <1% |  |  |  |
| O=C1CN=C(c2ccccc2)c2cc(Cl)ccc2N1 [Demethyldiazepam, Desmethyldiazepam] |  |  | 27% | 32% |  |
| O=C1CN=C(c2ccccc2Cl)c2cc([N+](=O)[O-])ccc2N1 [Clonazepam] |  |  | 9% | 5% |  |
| Cc1nnc2n1-c1ccc(Cl)cc1C(c1ccccc1)=NC2 [Alprazolam] |  |  | 40% | 44% |  |
| O=c1[nH]c(=O)c2[nH]cnc2[nH]1 [Xanthine] | <1% | <1% |  |  |  |
